Data from publication PMC8319882 (Drugs in R&D, 2021).

System: SARS-CoV-2 spike protein binding to ACE2

Sequence: FLDKFNHNFKDLF [13AApi]
- Inhibition of interaction between SARS-CoV-2 spike and immobilized ACE2: Greater than 40%
